One molecule from patent publication US10478157B2, “Methods for drug delivery” (Presage Biosciences, Inc., priority 2011, dated 2019) can be followed below.

The structures appear in SMILES notation.

The experiment has as its system mouse xenograft of Human Lymphoma Ramos cell line. Nature of the experiment: Vincristine delivered through a microdialysis probe into a solid tumor; Cleaved Caspase 3 / DAPI staining. The note with it: intratumoral delivery by microdialysis probe; Cleaved Caspase 3 Fluorophore 555 for cell death, DAPI nuclear stain; FIG. 13. Type of experiment: in vivo. The source says: FIGS. 13a and 13b show drug delivered through microdialysis probe induces spatially restricted drug specific tumor cell death embodying principles of the present invention.
Little or no evidence of tissue disruption due to insertion was observed. The membrane maintained its integrity through insertion and tissue processing, including microtome sectioning. The solid tumor is a mouse xenograft of Human Lymphoma Ramos cell line. The biomarkers are DAPI for nuclear stain and Cleaved Caspase 3 Fluorophore 555 for cell death in response to Vincristine as delivery agent.

With `CC[C@]1(O)C[C@H]2CN(CCc3c([nH]c4ccccc34)[C@@](C(=O)OC)(c3cc4c(cc3OC)N(C=O)[C@H]3[C@@](O)(C(=O)OC)[C@H](OC(C)=O)[C@]5(CC)C=CCN6CC[C@]43[C@@H]65)C2)C1` [Vincristine], the “triggered cellular response (Cleaved Caspase 3 biomarker for cell death) around the delivery axis” value is listed as “clear manifestation of triggered cellular response”.
